# From patent US9850283B2, “Macrocyclic inhibitors of the PD-1/PD-L1 and CD80(B7-1)/PD-L1 protein/protein interactions” (BRISTOL-MYERS SQUIBB COMPANY, priority 2013, dated 2017)
# Like-named read-outs stand apart in the source and are kept apart here. Positions of bridges follow the written chain, without caps; N, C: chain ends. Non-standard residues stand in square brackets, D forms with d. Residues, ends and D or L forms follow the SMILES beside them. ξ: configuration not given here. Phe(4-CH2NH2) = NCc1ccc(C[C@H](N)C(=O)O)cc1; Phe(3-Cl) = N[C@@H](Cc1cccc(Cl)c1)C(=O)O; Bta = N[C@@H](Cc1csc2ccccc12)C(=O)O; Hyp = O=C(O)[C@@H]1C[C@@H](O)CN1; NMeF = CN[C@@H](Cc1ccccc1)C(=O)O; dNMeNle = CCCC[C@@H](NC)C(=O)O; NMeNle = CCCC[C@H](NC)C(=O)O; NMeS = CN[C@@H](CO)C(=O)O; NMeA = CN[C@@H](C)C(=O)O; Orn = NCCC[C@H](N)C(=O)O; dDap = NC[C@@H](N)C(=O)O; Dab = NCC[C@H](N)C(=O)O; Abu = CC[C@H](N)C(=O)O; Dap = NC[C@H](N)C(=O)O; ξP = O=C(O)C1CCCN1; ξC = NC(CS)C(=O)O; Sar = CNCC(=O)O
# How the values were obtained:
# [1] = target: T1, LK35.2-hPD-L1 cells / PE-labeled PD-1-Ig (Homo sapiens, UniProt Q9NZQ7); assay: LK35.2-hPD-L1 cell binding high-content screening assay; type: cell-based; conditions: cluster symbol, read-out: CBA IC50 cluster
# T1 construct: expressed in transfected cells; host or cells: LK35.2 mouse B cell line
# How it was run: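 Readout: high-content imaging of PE-PD-1-Ig bound to LK35.2-hPD-L1 cells. Cells plated overnight (RPMI/10% FCS); compound + 1 nM PE-PD-1-Ig, 1 h, 37 °C; 3× dPBS wash before imaging.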
# Human PD-L1/PD-1 = target: T2, Human PD-L1/PD-1 (Homo sapiens, UniProt Q9NZQ7); assay: HTRF PD-1-Ig/PD-L1-His binding assay (human PD-L1); conditions: cluster symbol; read-out: HTRF IC50 cluster
# T2 construct: made in house; host or cells: HEK293T
# How it was run: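 HTRF read-out: Eu cryptate anti-Ig mAb 1 nM final, APC anti-His mAb 20 nM final, added over the binding reaction. Proteins were PD-1-Ig and PD-L1-His ectodomain fusions. Buffer was dPBS, 0.1% BSA, 0.05% Tween-20.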
# [2] = cell binding assay, cell line not given
# [3] = cell line of CBA not given (LK35.2-hPD-L1 or 293T-hPD-L1)
# T2 sequence (Q9NZQ7 with tags, fused parts or gaps): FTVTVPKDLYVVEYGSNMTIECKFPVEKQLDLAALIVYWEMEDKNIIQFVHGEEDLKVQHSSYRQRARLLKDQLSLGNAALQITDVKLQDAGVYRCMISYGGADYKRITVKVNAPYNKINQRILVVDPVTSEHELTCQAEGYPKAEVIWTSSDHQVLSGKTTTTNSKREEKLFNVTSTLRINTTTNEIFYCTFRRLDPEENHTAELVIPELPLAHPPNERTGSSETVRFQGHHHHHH
# T1 sequence (Q9NZQ7 19-290): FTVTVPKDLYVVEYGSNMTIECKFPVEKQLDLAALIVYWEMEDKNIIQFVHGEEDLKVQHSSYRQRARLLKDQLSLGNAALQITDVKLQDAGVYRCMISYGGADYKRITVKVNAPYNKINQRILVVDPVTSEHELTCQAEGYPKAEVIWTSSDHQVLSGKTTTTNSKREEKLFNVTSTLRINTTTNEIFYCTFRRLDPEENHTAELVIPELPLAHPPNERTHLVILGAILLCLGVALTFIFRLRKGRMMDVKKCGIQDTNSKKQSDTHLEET
Structure (SMILES),"IC50 [1, 2] [nM]",IC50 (Human PD-L1/PD-1) [nM],"IC50 [1, 3] [nM]"
CCCC[C@H]1C(=O)N(C)[C@@H](COCC)C(=O)N[C@@H](CCCNC(=N)N)C(=O)NC(C(=O)NCC(N)=O)CSCC(=O)N[C@@H](Cc2ccc(O)cc2)C(=O)N(C)[C@@H](C)C(=O)N[C@@H](CC(N)=O)C(=O)N2CCC[C@H]2C(=O)N[C@@H](Cc2cnc[nH]2)C(=O)N[C@@H](CC(C)C)C(=O)N2CCC[C@H]2C(=O)N[C@@H](Cc2c[nH]c3ccccc23)C(=O)N[C@@H](CO)C(=O)N[C@@H](Cc2csc3ccccc23)C(=O)N1C (stereo partly shown) [Example 9040] ({CH2CO}-Y[NMeA]NPHLPWS[Bta][NMeNle][NMeS](Et)R[ξC]G-NH2; thioether N-14),0.158 to 4.71,0.385 to 6.74,
CCCC[C@H]1C(=O)N(C)[C@@H](CCOC)C(=O)N[C@@H](CCCNC(=N)N)C(=O)NC(C(=O)NCC(N)=O)CSCC(=O)N[C@@H](Cc2ccc(O)cc2)C(=O)N(C)[C@@H](C)C(=O)N[C@@H](CC(N)=O)C(=O)N2CCC[C@H]2C(=O)N[C@@H](Cc2cnc[nH]2)C(=O)N[C@@H](CC(C)C)C(=O)N2C[C@H](O)C[C@@H]2C(=O)N[C@@H](Cc2c[nH]c3ccccc23)C(=O)N[C@@H](CO)C(=O)N[C@@H](Cc2c[nH]c3ccccc23)C(=O)N1C (stereo partly shown) [Example 9003],0.158 to 4.71,0.385 to 6.74,
CCCC[C@H]1C(=O)N(C)[C@@H](CCCC)C(=O)N[C@@H](CCCNC(=N)N)C(=O)N[C@H](C(=O)NCC(=O)NCC(N)=O)CSCC(=O)N[C@@H](Cc2ccccc2)C(=O)N(C)[C@@H](C)C(=O)N[C@@H](CC(N)=O)C(=O)N2CCC[C@H]2C(=O)N[C@@H](Cc2cnc[nH]2)C(=O)N[C@@H](CC(C)C)C(=O)N(C)CC(=O)N[C@@H](Cc2c[nH]c3ccccc23)C(=O)N[C@@H](CO)C(=O)N[C@@H](Cc2c[nH]c3ccccc23)C(=O)N1C [Example 6001] ({CH2CO}-F[NMeA]NPHL[Sar]WSW[NMeNle][NMeNle]RCGG-NH2; thioether N-14),4.78 to 72.9,6.76 to 30.3,
CCCC[C@H]1C(=O)N(C)[C@@H](CCCC)C(=O)N[C@@H](CC)C(=O)N[C@H](C(=O)NCC(N)=O)CSCC(=O)N[C@@H](Cc2ccc(O)cc2)C(=O)N(C)[C@@H](C)C(=O)N[C@@H](CC(N)=O)C(=O)N2CCC[C@H]2C(=O)N[C@@H](Cc2c[nH]cn2)C(=O)N[C@@H](CCC(N)=O)C(=O)N2C[C@H](O)C[C@H]2C(=O)N[C@@H](Cc2c[nH]c3ccccc23)C(=O)N[C@@H](CO)C(=O)N[C@@H](Cc2c[nH]c3ccccc23)C(=O)N1C [Example 5078] ({CH2CO}-Y[NMeA]NPHQ[Hyp]WSW[NMeNle][NMeNle][Abu]CG-NH2; thioether N-14),0.158 to 4.71,0.385 to 6.74,
CCCC[C@H]1C(=O)N(C)CC(=O)N[C@@H](CC(=O)O)C(=O)N[C@@H](C(C)C)C(=O)N(C)[C@@H](Cc2ccccc2)C(=O)N[C@@H](Cc2ccc(CN)cc2)C(=O)N(C)CC(=O)N[C@@H](Cc2c[nH]c3ccccc23)C(=O)N[C@@H](Cc2ccc(O)cc2)C(=O)N[C@@H](CC(C)C)C(=O)N[C@H](C(=O)NCC(N)=O)CSCC(=O)N[C@@H](Cc2cccc(Cl)c2)C(=O)N(C)[C@@H](Cc2ccccc2)C(=O)N1C [Example 3122] ({CH2CO}-[Phe(3-Cl)][NMeF][NMeNle][Sar]DV[NMeF][Phe(4-CH2NH2)][Sar]WYLCG-NH2; thioether N-13),,6.76 to 30.3,4.78 to 72.9
CCCC[C@H]1C(=O)N(C)[C@@H](CCCC)C(=O)N[C@@H](CCN)C(=O)N[C@H](C(=O)NCC(N)=O)CSCC(=O)N[C@@H](Cc2ccc(O)cc2)C(=O)N(C)[C@@H](C)C(=O)N[C@@H](CC(N)=O)C(=O)N2CCC[C@H]2C(=O)N[C@@H](Cc2cnc[nH]2)C(=O)N[C@@H](CCC(=O)O)C(=O)N2C[C@H](O)C[C@H]2C(=O)N[C@@H](Cc2c[nH]c3ccccc23)C(=O)N[C@@H](CCN)C(=O)N[C@@H](Cc2c[nH]c3ccccc23)C(=O)N1C [Example 5028] ({CH2CO}-Y[NMeA]NPHE[Hyp]W[Dab]W[NMeNle][NMeNle][Dab]CG-NH2; thioether N-14),0.158 to 4.71,0.385 to 6.74,
CCCC[C@H]1C(=O)N(C)[C@@H](CCCC)C(=O)N[C@@H](CC(C)C)C(=O)N[C@H](C(=O)NCC(N)=O)CSCC(=O)N[C@@H](Cc2ccc(O)cc2)C(=O)N(C)[C@@H](C)C(=O)N[C@@H](CC(=O)O)C(=O)N2CCC[C@H]2C(=O)N[C@@H](Cc2cnc[nH]2)C(=O)N[C@@H](CCC(=O)O)C(=O)N2C[C@H](O)C[C@H]2C(=O)N[C@@H](Cc2c[nH]c3ccccc23)C(=O)N[C@@H](CCN)C(=O)N[C@@H](Cc2c[nH]c3ccccc23)C(=O)N1C [Example 5066] ({CH2CO}-Y[NMeA]DPHE[Hyp]W[Dab]W[NMeNle][NMeNle]LCG-NH2; thioether N-14),0.158 to 4.71,0.385 to 6.74,
"CCCC[C@H]1C(=O)N(C)CC(=O)N[C@@H](CC(=O)O)C(=O)N[C@@H](C(C)C)C(=O)N(C)[C@@H](Cc2ccccc2)C(=O)N[C@@H](CCC(=O)O)C(=O)N(C)CC(=O)N[C@@H](Cc2c[nH]c3ccccc23)C(=O)N[C@@H](Cc2ccc(O)cc2)C(=O)N[C@@H](CC(C)C)C(=O)N[C@H](C(=O)NCC(N)=O)CSCC(=O)N[C@@H](Cc2ccccc2)C(=O)N(C)[C@@H](Cc2ccccc2)C(=O)N1C [Example 3507] (HELM PEPTIDE1{[O=C(C[*:3])[*:2]].F.[meF].[CCCC[C@@H](C(=O)[*:2])N(C)[*:1]].[Sar].D.V.[meF].E.[Sar].W.Y.L.C.G.[am]}$PEPTIDE1,PEPTIDE1,1:R3-14:R3$$$V2.0)",> 74.3,6.76 to 30.3,
CCCC[C@H]1C(=O)N[C@@H](Cc2c[nH]c3ccccc23)C(=O)N[C@@H](CCN)C(=O)N[C@@H](Cc2c[nH]c3ccccc23)C(=O)N(C)[C@@H](CCCC)C(=O)N(C)[C@@H](CCCC)C(=O)N[C@@H](CC(C)C)C(=O)N[C@H](C(=O)NCC(N)=O)CSCC(=O)N[C@@H](Cc2ccc(O)cc2)C(=O)N(C)[C@@H](C)C(=O)N[C@@H](CC(N)=O)C(=O)N2CCC[C@H]2C(=O)N[C@@H](CN)C(=O)N[C@@H](CC(C)C)C(=O)N1C [Example 6041] ({CH2CO}-Y[NMeA]NP[Dap]L[NMeNle]W[Dab]W[NMeNle][NMeNle]LCG-NH2; thioether N-14),4.78 to 72.9,6.76 to 30.3,
CCCC[C@@H]1C(=O)N(C)[C@H](CCCC)C(=O)N[C@@H](CN)C(=O)N[C@@H](C(=O)NCC(N)=O)CSCC(=O)N[C@@H](Cc2ccc(O)cc2)C(=O)N2CCCC2C(=O)N[C@H](CC(=O)O)C(=O)N2CCC[C@H]2C(=O)N[C@H](CN)C(=O)N[C@@H](CC(=O)O)C(=O)N2CCCC2C(=O)N[C@H](Cc2c[nH]c3ccccc23)C(=O)N[C@@H](CCN)C(=O)N[C@@H](Cc2c[nH]c3ccccc23)C(=O)N1C (stereo partly shown) [Example 1212] ({CH2CO}-Y[ξP][dD]P[dDap]D[ξP][dW][Dab]W[dNMeNle][dNMeNle][Dap][dC]G-NH2; thioether N-14),,> 30.5,> 74.3
CCCC[C@H]1C(=O)N(C)[C@@H](CCCC)C(=O)N[C@@H](CCN)C(=O)N[C@H](C(=O)NCC(N)=O)CSCC(=O)N[C@@H](Cc2ccc(O)cc2)C(=O)N(C)[C@@H](C)C(=O)N[C@@H](CC(N)=O)C(=O)N2CCC[C@H]2C(=O)N[C@@H](Cc2cnc[nH]2)C(=O)N[C@@H](CCC(=O)O)C(=O)N2C[C@H](O)C[C@H]2C(=O)N[C@@H](Cc2csc3ccccc23)C(=O)N[C@@H](CO)C(=O)N[C@@H](Cc2c[nH]c3ccccc23)C(=O)N1C [Example 5054] ({CH2CO}-Y[NMeA]NPHE[Hyp][Bta]SW[NMeNle][NMeNle][Dab]CG-NH2; thioether N-14),> 74.3,> 30.5,
CCCC[C@H]1C(=O)N(C)[C@@H](CCCC)C(=O)N[C@@H](CCCNC(=N)N)C(=O)N[C@H](C(=O)NCC(N)=O)CSCC(=O)N[C@@H](Cc2ccc(O)cc2)C(=O)N(C)[C@@H](C)C(=O)N[C@@H](CCCN)C(=O)N2CCC[C@H]2C(=O)N[C@@H](Cc2c[nH]cn2)C(=O)N[C@@H](CC(=O)O)C(=O)N2C[C@H](O)C[C@H]2C(=O)N[C@@H](Cc2c[nH]c3ccccc23)C(=O)N[C@@H](CO)C(=O)N[C@@H](Cc2c[nH]c3ccccc23)C(=O)N1C [Example 5105] ({CH2CO}-Y[NMeA][Orn]PHD[Hyp]WSW[NMeNle][NMeNle]RCG-NH2; thioether N-14),4.78 to 72.9,6.76 to 30.3,
CCCC[C@H]1C(=O)N(C)[C@@H](CCCC)C(=O)N[C@@H](CCCNC(=N)N)C(=O)N[C@H](C(=O)NCC(N)=O)CSCC(=O)N[C@@H](Cc2ccc(O)cc2)C(=O)N(C)[C@@H](C)C(=O)N[C@@H](CC(N)=O)C(=O)N2CCC[C@H]2C(=O)N[C@@H](CN)C(=O)N[C@@H](CC(C)C)C(=O)N2C[C@H](O)C[C@H]2C(=O)N[C@@H](Cc2c[nH]c3ccccc23)C(=O)N[C@@H](CCC(=O)O)C(=O)N[C@@H](Cc2c[nH]c3ccccc23)C(=O)N1C [Example 5058] ({CH2CO}-Y[NMeA]NP[Dap]L[Hyp]WEW[NMeNle][NMeNle]RCG-NH2; thioether N-14),4.78 to 72.9,0.385 to 6.74,
CCCC[C@H]1C(=O)N(C)[C@@H](CCCC)C(=O)N[C@@H](Cc2cnc[nH]2)C(=O)N[C@H](C(=O)NCC(N)=O)CSCC(=O)N[C@@H](Cc2ccccc2)C(=O)N(C)[C@@H](C)C(=O)N[C@@H](CC(N)=O)C(=O)N2CCC[C@H]2C(=O)N[C@@H](Cc2cnc[nH]2)C(=O)N[C@@H](CC(C)C)C(=O)N(C)CC(=O)N[C@@H](Cc2c[nH]c3ccccc23)C(=O)N[C@@H](CO)C(=O)N[C@@H](Cc2c[nH]c3ccccc23)C(=O)N1C [Example 5013] ({CH2CO}-F[NMeA]NPHL[Sar]WSW[NMeNle][NMeNle]HCG-NH2; thioether N-14),> 74.3,> 30.5,
